Reference: article PMC3466213, “Discovery of Novel Orally Active Anti-Inflammatory N-Phenylpyrazolyl-N-Glycinyl-Hydrazone Derivatives That Inhibit TNF-α Production” (PLoS ONE, 2012)
Entries after “also recorded” stand apart in the source; their conditions may differ.

Key:
TNF-α production = assay: LPS-induced TNF-α production in culture of mice peritoneal macrophage (ELISA); assay type: cell-based; conditions: for IC50: mouse peritoneal macrophages, at least five concentrations, range tested in parentheses, read-out: TNF-α Inhibition IC50; for inhibition at 10 µM: read-out: TNF-α Inhibition, % inhibition at 10 µM, mouse peritoneal macrophages, 10 µM, vs vehicle (DMSO), n = 3
Description: BALBc mice were stimulated with thyoglicollate 3% (1 mL/mice; i.p.) and 3 days later the peritoneal cavity were washed with RPMI 1640 and the peritoneal macrophages were plated onto 96-wells plate (30.000 cells/well) for 1 hour at 37°C in an humidified 5% CO2 atmophere. Then, macrophages were incubated with the vehicle or compounds and 1 hour later stimulated with LPS (100 ng/mL) for 24 hour when the supernatants were collected to evaluate TNF-α production by ELISA kit (BD Bioscience).

[1] = Cell viability by MTT assay; assay type: cell-based; conditions: mouse, murine peritoneal macrophages, vs vehicle (DMSO)
Description: The peritoneal macrophage were obtained and plated as described above. The cells were incubated with the vehicle or compounds for 20 hours when was added 20 µl of MTT (3-(4,5-dimethylthiazol-2-yl)-2,5-diphenyltetrazolium bromide) solution (5 mg/mL), followed by 4 hour of incubation. Then, the culture mediums were collected and the precipitates were solubilized in 200 µl of DMSO. The optical density was measured at 490 nm.

p38α MAPK = p38α MAPK (Homo sapiens, UniProt Q16539); assay: In vitro p38α MAPK activity inhibition (nonradioactive immunosorbent assay, ref 23); assay type: biochemical
Sequence of p38α MAPK (Q16539 whole entry): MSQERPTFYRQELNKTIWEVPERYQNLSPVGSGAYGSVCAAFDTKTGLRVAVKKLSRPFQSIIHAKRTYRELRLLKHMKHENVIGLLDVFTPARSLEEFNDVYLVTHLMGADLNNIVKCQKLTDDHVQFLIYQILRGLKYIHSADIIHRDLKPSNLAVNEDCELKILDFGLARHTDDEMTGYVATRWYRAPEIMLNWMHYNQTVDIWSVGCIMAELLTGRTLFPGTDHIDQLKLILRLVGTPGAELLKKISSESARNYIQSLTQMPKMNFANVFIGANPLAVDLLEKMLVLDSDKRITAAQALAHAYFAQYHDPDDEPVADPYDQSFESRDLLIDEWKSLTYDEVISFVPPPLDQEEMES
Description: Because the novel N-acylhydrazone derivatives 4a–g were designed based on the p38α MAPK inhibitor BIRB-796 (3), they were all evaluated for their in vitro capacity to inhibit p38α MAPK activity at a concentration of 10 µM.
*This assay was performed as described in reference 23.

[2] = system: carrageenan-induced thermal hypernociception; assay: Carrageenan-induced thermal hypernociception (modified hot-plate test); assay type: in vivo, rat; conditions: rats, 100 µmol/kg p.o.
Description: (§1) Wistar rats of both sexes (150–200g) were used. The compounds were administered orally (100 µmol.5mL-1.kg-1) as a suspension in 5% arabic gum in saline (vehicle). Control animals received an equal volume of vehicle. One hour later, the animals were injected with either 0.1 ml of 1% carrageenan solution in saline or sterile saline (NaCl 0.9%), into the subplantar surface of one of the hind paws. The thermal hypernociception was determined using the modified hot-plate test. Rats are placed individually on a hot plate with the temperature adjusted to 51°C. The latency of the withdrawal response of the left hind paw is determined at 0, 30, 60, 120, 180, and 240 min post-challenge. The time of maximum permanence permitted on the hot surface is 20 s. Hypernociception to heat is defined as a decrease in withdrawal latency and calculated as follows: Δ paw withdrawal latency (s) = (left paw withdrawal latency at time 0) – (left paw withdrawal latency at the others times).

[3] = system: TNF-α level in carrageenan-injected paws; assay: TNF-α level in carrageenan-injected paws (ELISA); assay type: in vivo; conditions: rat paw, 4 h after carrageenan, 100 µmol/kg p.o.
Description: as §1
The paw was homogenized 4 h after intraplantar injection of carrageenan, and the level of TNF-α in the supernatant was determined by ELISA.

[4] = Aqueous solubility in phosphate buffer (HPLC-UV); assay type: physicochemical
Description: (§2) The organic fraction was analyzed with the Shimadzu Prominence HPLC system (Shimadzu, Tokio, Japan) consisting of a vacuum degasser (DGU-20A5), a binary pump (LC-20AD), a autosampler (SIL-20A), UV/VIS Photodiode Array Detector (SPD-M20A) and fitted with a guard column (CLC G-ODS) and a Shimadzu (CLC-ODS, M) column (250 mm×4.6 mm i.d.) running at room temperature. Isocratic elution was performed with acetonitrile-water (40∶60 v/v), at a flow rate set at 1 mL/min. The mobile phase pH was adjusted to 8.0 with NH4OH solution. The detection was carried out at 285 nm and 330 nm wavelength for compound 4f and 4a, respectively.

[5] = Rat liver microsomal stability; assay type: in vitro ADME; conditions: 50 µM, 37 °C, 1 mg/mL protein
Description: The incubation was conducted at 37°C for 60 min. The experiments contains MgCl2 (1.3 mM), NADP+ (0.4 mM), glucose-6-phosphate (3.5 mM), 0.5 U/mL glucose-6-phosphate dehydrogenase in a phosphate buffer (0.1 M, pH 7.4) containing EDTA (1.5 mM) and the test compounds were added at final concentration of 50 µM with 0.25 mL of final volume. After the pre-warming of the mixture at 37 °C, the microsomal proteins were added to give a final protein concentration of 1 mg/mL. At the end of the incubation time the reaction was stopped by the addition of 375 µL of MeOH and 375 µL of CH3CN. The experiments were performed in duplicate. The samples were centrifuged and filtered for HPLC-UV analysis.
as §2

Rat plasma stability = assay type: in vitro ADME; conditions: 50 µM; for % Recovered amount after 60 min, rat plasma: 37 °C
Description: The rat plasma was obtained from blood by centrifugation and diluted in phosphate buffer (pH 7.4). The test compounds were added at final concentration of 50 µM with 0.25 mL of final volume and incubated at 37°C for 60 min under agitation. At the end of the incubation time the reaction was stopped by the addition of 375 µL of MeOH and 375 µL of CH3CN. The experiments were performed in duplicate. The samples were centrifuged and filtered for HPLC-UV analysis.
as §2

Row | IC50 (TNF-α production) | inhibition at 10 µM (p38α MAPK) | melting point | Improvement in aqueous solubility at pH 6.4 (versus pH 7.4) ([4]; pH 6.4 compared with pH 7.4) | Improvement in solubility of 4a compared with 4f at pH 6.4 ([4]; phosphate buffer pH 6.4, 37 °C, 24 h) | Improvement in solubility of 4a compared with 4f at pH 7.4 ([4]; phosphate buffer pH 7.4, 37 °C, 24 h) | % Recovered amount after 60 min, rat liver microsomes [5] | % Recovered amount after 60 min, rat plasma (Rat plasma stability) | Resistance to plasma degradation relative to 4f (Rat plasma stability; rat plasma, 60 min) | Structure (SMILES) | inhibition at 10 µM (TNF-α production) | viability at 20 h, 3 µM [1] | viability at 20 h, 10 µM [1] | Anti-hypernociceptive effect (in words) [2] | Suppression of the elevation of tissue TNF-α level [3]
1 | – | – | 156 to 158 °C | – | – | – | – | – | – | CN(CC(=O)N/N=C/c1ccccc1)c1cc(C(C)(C)C)nn1-c1ccccc1 [Compound 15, (E)-N’-benzylidene-2-((3-tert-butyl-1-phenyl-1H-pyrazol-5-yl)(methyl)amino)acetohydrazide] | – | – | – | – | –
2 | – | 16.4% | 158 °C | – | – | – | – | – | – | CC(C)(C)c1cc(NCC(=O)N/N=C/c2ccc(OCCN3CCOCC3)cc2)n(-c2ccccc2)n1 [Compound 4d, (E)-2-(3-tert-butyl-1-phenyl-1H-pyrazol-5-ylamino)-N’-(4-(2-morpholinoethoxy)benzylidene)acetohydrazide] | 52.5% | 100% | 100% | – | –
3 | 1.6 µM | 15.3% | – | – | – | – | 86.7% | 13.3% | – | CC(C)(C)c1cc(NCC(=O)N/N=C/c2ccc(Cl)cc2)n(-c2ccccc2)n1 [Compound 4f, (E)-2-(3-tert-butyl-1-phenyl-1H-pyrazol-5-ylamino)-N’-(4-chlorobenzylidene)acetohydrazide] | 93.2% | 100% | 46.6% | comparable to SB-203580; also recorded: partially inhibit this response | 55.8%
4 | – | 19.5% | – | – | – | – | – | – | – | CC(C)(C)c1cc(NCC(=O)N/N=C/c2ccccc2)n(-c2ccccc2)n1 [Compound 4g, (E)-N’-benzylidene-2-(3-tert-butyl-1-phenyl-1H-pyrazol-5-ylamino)acetohydrazide] | 50.4% | 100% | 99.8% | – | –
5 | – | – | 181 to 183 °C | – | – | – | – | – | – | CC(C)=NNC(=O)CNc1cc(C(C)(C)C)nn1-c1ccccc1 [Compound 9, 2-(3-tert-butyl-1-phenyl-1H-pyrazol-5-ylamino)-N’-(propan-2-ylidene)acetohydrazide] | – | – | – | – | –
6 | – | ~30% | – | – | – | – | – | – | – | CC(C)(C)c1cc(NCC(=O)N/N=C/c2ccc(O)cc2)n(-c2ccccc2)n1 [Compound 4e, (E)-2-(3-tert-butyl-1-phenyl-1H-pyrazol-5-ylamino)-N’-(4-hydroxybenzylidene)acetohydrazide] | 8.1% | 100% | 97.8% | – | –

More lines, now with the values behind:

Row | Structure (SMILES) | IC50 (TNF-α production) | inhibition at 10 µM (p38α MAPK) | melting point | Improvement in aqueous solubility at pH 6.4 (versus pH 7.4) ([4]; pH 6.4 compared with pH 7.4) | Improvement in solubility of 4a compared with 4f at pH 6.4 ([4]; phosphate buffer pH 6.4, 37 °C, 24 h) | Improvement in solubility of 4a compared with 4f at pH 7.4 ([4]; phosphate buffer pH 7.4, 37 °C, 24 h) | % Recovered amount after 60 min, rat liver microsomes [5] | % Recovered amount after 60 min, rat plasma (Rat plasma stability) | Resistance to plasma degradation relative to 4f (Rat plasma stability; rat plasma, 60 min) | inhibition at 10 µM (TNF-α production) | viability at 20 h, 3 µM [1] | viability at 20 h, 10 µM [1] | Anti-hypernociceptive effect (in words) [2] | Suppression of the elevation of tissue TNF-α level [3]
7 | CC(C)(C)c1cc(NCC(=O)N/N=C/c2cccc3ccccc23)n(-c2ccccc2)n1 [Compound 4c, (E)-2-(3-tert-butyl-1-phenyl-1H-pyrazol-5-ylamino)-N’-(naphthalen-1-ylmethylene)acetohydrazide] | 5.5 µM | 19.7% | 140 °C | – | – | – | – | – | – | 61.2% | 100% | 90.4% | – | –
8 | CC(C)(C)c1cc(NCC(=O)N/N=C/c2ccc(O)c3ccccc23)n(-c2ccccc2)n1 [Compound 4b, (E)-2-(3-tert-butyl-1-phenyl-1H-pyrazol-5-ylamino)-N’-((4-hydroxynaphthalen-1-yl)methylene)acetohydrazide] | 4.3 µM | ~30% | 270 °C | – | – | – | – | – | – | 75.4% | 100% | 100% | – | –
9 | CC(C)(C)c1cc(NCC(=O)N/N=C/c2ccc(OCCN3CCOCC3)c3ccccc23)n(-c2ccccc2)n1 [Compound 4a, (E)-2-(3-tert-butyl-1-phenyl-1H-pyrazol-5-ylamino)-N’-((4-(2-morpholinoethoxy)naphthalen-1-yl)methylene)acetohydrazide] | 3.6 µM | -5.35% | 180 °C | ca. three | ca. 12 times | ca. 5 times | 90.1% | 40.7% | about four | 96.9% | 100% | 61.5% | comparable to SB-203580; also recorded: completely inhibit the hypernociceptive response | 57.3%
10 | C[S+]([O-])c1ccc(-c2nc(-c3ccncc3)c(-c3ccc(F)cc3)[nH]2)cc1 (centres unmarked) [SB-203580 (1), SB-203580, reference compound] | – | – | – | – | – | – | – | – | – | 90% | 100% | 44.3% | – | –
